Source: ChEMBL document CHEMBL1155191, “Simple dihydrosphyngosine analogues with potent activity against MDR-Mycobacterium tuberculosis” (2009)
Converted amounts (≈) assume the structure as drawn.

Tests used:
Assay type in all cases: functional
[1] = test system: Mycobacterium tuberculosis; assay: Antimycobacterial activity against multidrug-resistant Mycobacterium tuberculosis 528 after 5 to 7 days by microplate alamar blue assay
[2] = test system: Mycobacterium tuberculosis; assay: Antimycobacterial activity against multidrug-resistant Mycobacterium tuberculosis 160 after 5 to 7 days by microplate alamar blue assay
[3] = test system: Mycobacterium tuberculosis; assay: Antimycobacterial activity against multidrug-resistant, ethambutol-sensitive Mycobacterium tuberculosis 401 after 5 to 7 days by microplate alamar blue assay
[4] = test system: Mycobacterium tuberculosis; assay: Antimycobacterial activity against multidrug-resistant, ethambutol-sensitive Mycobacterium tuberculosis 494 after 5 to 7 days by microplate alamar blue assay
[5] = test system: Mycobacterium tuberculosis; assay: Antimycobacterial activity against multidrug-resistant Mycobacterium tuberculosis 411 after 5 to 7 days by microplate alamar blue assay
[6] = test system: Mycobacterium tuberculosis; assay: Antimycobacterial activity against multidrug-resistant Mycobacterium tuberculosis 331 after 5 to 7 days by microplate alamar blue assay
[7] = test system: Mycobacterium tuberculosis; assay: Antimycobacterial activity against multidrug-resistant, streptomycin-sensitive Mycobacterium tuberculosis 429 after 5 to 7 days by microplate alamar blue assay
[8] = test system: Mycobacterium tuberculosis; assay: Antimycobacterial activity against multidrug-resistant, pyrazinamide-sensitive Mycobacterium tuberculosis 366 after 5 to 7 days by microplate alamar blue assay
[9] = test system: Mycobacterium tuberculosis; assay: Antimycobacterial activity against streptomycin, rifampicin, pyrazinamide-sensitive isoniazid, ethambutol-resistant Mycobacterium tuberculosis 363 after 5 to 7 days by microplate alamar blue assay
[10] = test system: Mycobacterium tuberculosis; assay: Antimycobacterial activity against multidrug-resistant Mycobacterium tuberculosis 332 after 5 to 7 days by microplate alamar blue assay
[11] = test system: Mycobacterium tuberculosis; assay: Antimycobacterial activity against multidrug-resistant Mycobacterium tuberculosis 535 after 5 to 7 days by microplate alamar blue assay

Compound	MIC [1]	MIC [2]	MIC [3]	MIC [4]	MIC [5]	MIC [6]	MIC [7]	MIC [8]	MIC [9]	MIC [10]	MIC [11]
CCCCCCCCCCCCCCC(N)COCc1ccccc1 (stereo not drawn)	18 µM (≈ 6.26 µg/mL)	9 µM (≈ 3.13 µg/mL)	4.5 µM (≈ 1.56 µg/mL)	9 µM (≈ 3.13 µg/mL)	4.5 µM (≈ 1.56 µg/mL)	9 µM (≈ 3.13 µg/mL)	9 µM (≈ 3.13 µg/mL)	4.5 µM (≈ 1.56 µg/mL)	18 µM (≈ 6.26 µg/mL)	36 µM (≈ 12.5 µg/mL)	18 µM (≈ 6.26 µg/mL)
CCCCCCCCCCCCCCC(COCc1ccccc1)N(CC)CC (stereo not drawn)	15.5 µM (≈ 6.26 µg/mL)	7.7 µM (≈ 3.11 µg/mL)	7.7 µM (≈ 3.11 µg/mL)	7.7 µM (≈ 3.11 µg/mL)	7.7 µM (≈ 3.11 µg/mL)	15.5 µM (≈ 6.26 µg/mL)	7.7 µM (≈ 3.11 µg/mL)	3.9 µM (≈ 1.57 µg/mL)	3.9 µM (≈ 1.57 µg/mL)	1.9 µM (≈ 0.767 µg/mL)	3.9 µM (≈ 1.57 µg/mL)
CCCCCCCCCCCCCCC(N)CN(CC)CC (stereo not drawn)	40 µM (≈ 12.5 µg/mL)	40 µM (≈ 12.5 µg/mL)	40 µM (≈ 12.5 µg/mL)	40 µM (≈ 12.5 µg/mL)	40 µM (≈ 12.5 µg/mL)	40 µM (≈ 12.5 µg/mL)	40 µM (≈ 12.5 µg/mL)	20 µM (≈ 6.25 µg/mL)	40 µM (≈ 12.5 µg/mL)	40 µM (≈ 12.5 µg/mL)	40 µM (≈ 12.5 µg/mL)
